Seven molecules from ChEMBL document CHEMBL1201862, “PubChem BioAssay data set” (2004) can be followed below.

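Assay format: 96-well plates, 48-hour exposure. Here, GI50 denotes the concentration required for 50% inhibition of growth.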 Active and inactive are the calls of the source. Rule as the data show it: active = GI50 up to about 1.1 µM and inactive = higher.

Holding throughout (assay): DTP human tumour cell line panel, 48 h
The test system of experiment [1] is SK-MEL-5.
Experiment [2] has as its system CAKI-1.
Experiment [3] has as its system IGROV-1.
Experiment [4] relates to HOP-62.
Experiment [5] concerns SF-295.
Experiment [6] deals with OVCAR-4.
Experiment [7] concerns HCT-116.
Experiment [8] relates to NCI-H23.
For experiment [9], the system named is UACC-257.
For experiment [10], the system named is M14.
Experiment [11] relates to SF-268.
In experiment [12] the test system is MOLT-4.
The subject of experiment [13] is HL-60.
The subject of experiment [14] is RPMI-8226.
Experiment [15] concerns K562.
Experiment [16] has as its system HT-29.
The test system of experiment [17] is SK-OV-3.
The test system of experiment [18] is MDA-MB-435.
The test system of experiment [19] is RXF 393.
Experiment [20] relates to ACHN.

A word on the GI50: it is the concentration giving 50% growth inhibition. With `CCOC(=O)c1cccc(/N=N/Nc2cccc(C(=O)OCC)c2)c1`, the GI50 was 23.4 µM (inactive) in [1]; 42 µM (inactive) in experiment [2]; 38.9 µM (inactive) in experiment [3]; 9.12 µM (inactive) in experiment [4]; 15.6 µM (inactive) in [5]; 20.9 µM (inactive) in experiment [6]. Also, the GI50 in experiment [7] is 31.9 µM (inactive); in [8], 43.2 µM (inactive); in experiment [9] it was 56.9 µM (inactive); in experiment [10], > 100 µM (inactive); in experiment [11] it was 27 µM (inactive); in experiment [12] it was > 100 µM (inactive). For the same molecule, the GI50 in [13] is > 100 µM (inactive); in experiment [14] it was > 100 µM (inactive); in experiment [15], 71.4 µM (inactive); in experiment [16], 52.8 µM (inactive); in experiment [17], 28.7 µM (inactive); in experiment [18], 16.4 µM (inactive). For the same molecule, the GI50 was 19.1 µM (inactive) in experiment [19] and 53.8 µM (inactive) in experiment [20].

Consider `N=C(N)N/N=C(\c1ccc(F)cc1)c1ccc(C(F)(F)F)cc1`, for which the GI50 in experiment [1] was 0.466 µM (active); in [2] it was 0.451 µM (active); in experiment [3], 0.284 µM (active); in experiment [4] it was 0.273 µM (active); in experiment [5] it was 0.264 µM (active); in experiment [6], 1.1 µM (active). The GI50 in experiment [7] was 0.104 µM (active); in [8] it was 0.382 µM (active); in experiment [9], 1.16 µM (inactive); in experiment [10], 0.298 µM (active); in [11], 0.593 µM (active); in experiment [12], 0.358 µM (active). Besides, the GI50 is 0.213 µM (active) in experiment [13]; 0.376 µM (active) in experiment [14]; 0.132 µM (active) in experiment [15]; 0.412 µM (active) in [16]; 0.817 µM (active) in experiment [17]; 0.075 µM (active) in experiment [18]. Moreover, the GI50 in [19] is 0.22 µM (active); in experiment [20], 0.611 µM (active).

Turning to `COc1ccccc1C(C1=C(O)COC1=O)c1cc2c(cc1OC(C)=O)OCO2` (stereo not given), the GI50 in [1], in experiment [2], in experiment [3], in experiment [4], in experiment [5] and in experiment [6] was > 100 µM (inactive) throughout. Also, the GI50 in experiment [7], in [8], in experiment [9], in experiment [10], in experiment [11] and in experiment [12] was > 100 µM (inactive) throughout. In addition, the GI50 in experiment [13], in [14], in experiment [15], in experiment [16], in [17] and in experiment [18] was > 100 µM (inactive) in each case. The GI50 in [19] and in experiment [20] was > 100 µM (inactive) in each case.

Turning to `CNC(=O)NC(CCCCNC(=O)OCc1ccccc1)C(=O)OCc1ccccc1` (stereo not given), the GI50 in experiment [1] is 15.9 µM (inactive); in [2], 47.6 µM (inactive); in experiment [3], > 100 µM (inactive); in experiment [4], > 100 µM (inactive); in experiment [5], 60.8 µM (inactive); in experiment [6], 76.4 µM (inactive). The GI50 in experiment [7] was 81.8 µM (inactive); in [8], 47.6 µM (inactive); in experiment [9] it was 16.9 µM (inactive); in [10], 19.5 µM (inactive); in experiment [11], 57.3 µM (inactive); in experiment [12], 19 µM (inactive). The GI50 in experiment [13] is 26.2 µM (inactive); in experiment [14], 24.9 µM (inactive); in experiment [15], 31.3 µM (inactive); in experiment [16] it was > 100 µM (inactive); in experiment [17], > 100 µM (inactive); in experiment [18], 19.6 µM (inactive). For the same molecule, the GI50 was 27.9 µM (inactive) in experiment [19] and 41.9 µM (inactive) in [20].

For `COc1cc2c(cc1OC)C(=O)/C(=C/c1ccccc1)C2`, the GI50 in [1] was 37.2 µM (inactive); in experiment [2] it was > 100 µM (inactive); in [3], > 67 µM (inactive); in [4], 52.5 µM (inactive); in [5], 76.9 µM (inactive); in experiment [6], > 85.5 µM (inactive). In addition, the GI50 in [7] was 48 µM (inactive); in experiment [8], > 74.8 µM (inactive); in experiment [9] it was > 100 µM (inactive); in experiment [10] it was > 62.5 µM (inactive); in experiment [11] it was 73.3 µM (inactive); in experiment [12] it was 16.3 µM (inactive). Besides, the GI50 is 16.9 µM (inactive) in experiment [13]; 19.1 µM (inactive) in [14]; 11.9 µM (inactive) in [15]; 45.3 µM (inactive) in experiment [16]; > 100 µM (inactive) in experiment [17]; > 87.7 µM (inactive) in [18]. Also, the GI50 in experiment [19] was > 34.8 µM (inactive); in experiment [20] it was > 100 µM (inactive).

Turning to `COC(=O)C1=CC2CCCC1(O)C(C(C)=O)C2` (stereo not given), the GI50 in experiment [1] is > 100 µM (inactive); in [2] it was > 100 µM (inactive); in experiment [3], 15.4 µM (inactive); in experiment [4], > 75 µM (inactive); in [5], > 67.5 µM (inactive); in experiment [6], > 62.7 µM (inactive). In addition, the GI50 in experiment [7] is 62.1 µM (inactive); in experiment [8] it was > 77.1 µM (inactive); in [9], > 100 µM (inactive); in experiment [10], > 100 µM (inactive); in [11], > 21.7 µM (inactive); in [12], 21.1 µM (inactive). In addition, the GI50 was 24.2 µM (inactive) in experiment [13]; 25.1 µM (inactive) in experiment [14]; 34 µM (inactive) in experiment [15]; > 100 µM (inactive) in experiment [16]; > 100 µM (inactive) in [17]; > 100 µM (inactive) in [18]. The GI50 is > 70.1 µM (inactive) in experiment [19] and > 100 µM (inactive) in experiment [20].

For the molecule `Oc1ccc2c3c1OC1c4[nH]ncc4C[C@H]4[C@@H](C2)N(CC2CC2)CC[C@]314` (stereo not given in full), the GI50 in [1], in experiment [2], in [3], in experiment [4], in [5] and in experiment [6] was > 100 µM (inactive) each time. The GI50 in experiment [7], in experiment [8], in experiment [9], in experiment [10], in [11] and in experiment [12] was > 100 µM (inactive) in each case. The GI50 in [13] is > 100 µM (inactive); in experiment [14], > 100 µM (inactive); in experiment [15] it was 99.5 µM (inactive); in [16], > 100 µM (inactive); in experiment [17] it was > 100 µM (inactive); in experiment [18], > 100 µM (inactive). Besides, the GI50 in experiment [19] and in [20] was > 100 µM (inactive) each time.
